From ChEMBL document CHEMBL3525902, “In vitro metabolism of oxymetazoline: evidence for bioactivation to a reactive metabolite” (Drug Metab Dispos, 2011) come the findings set out here.

The target in data set [1] is T1, Cytochrome P450 2C19 (Homo sapiens, UniProt P33261). Description: Activity of human recombinant CYP2C19 assessed as 3-((1H-imidazol-2-yl)methyl)-6-(1-hydroxy-2-methylpropan-2-yl)-2,4-dimethylphenol formation at 50 uM in presence of NADPH by LC-MS/MS method. The data set is classed as ADME. Conditions: recombinant enzyme.
The target of data set [2] is T1, Cytochrome P450 2C19. The experiment in a line: Activity of human recombinant CYP2C19 assessed as (S)-2-amino-5-((R)-3-(5-tert-butyl-2-((4,5-dihydro-1H-imidazol-2-yl)methyl)-4-hydroxy-3-methylbenzylthio)-1-(carboxymethylamino)-1-oxopropan-2-ylamino)-5-oxopentanoic acid formation at 50 uM in presence of NADPH and glutathione by LC-MS/MS method. The data set is classed as ADME. Conditions: recombinant enzyme.

In another data set the target is T2, Cytochrome P450 2B6 (Homo sapiens, UniProt P20813).
T2 sequence (P20813 whole entry): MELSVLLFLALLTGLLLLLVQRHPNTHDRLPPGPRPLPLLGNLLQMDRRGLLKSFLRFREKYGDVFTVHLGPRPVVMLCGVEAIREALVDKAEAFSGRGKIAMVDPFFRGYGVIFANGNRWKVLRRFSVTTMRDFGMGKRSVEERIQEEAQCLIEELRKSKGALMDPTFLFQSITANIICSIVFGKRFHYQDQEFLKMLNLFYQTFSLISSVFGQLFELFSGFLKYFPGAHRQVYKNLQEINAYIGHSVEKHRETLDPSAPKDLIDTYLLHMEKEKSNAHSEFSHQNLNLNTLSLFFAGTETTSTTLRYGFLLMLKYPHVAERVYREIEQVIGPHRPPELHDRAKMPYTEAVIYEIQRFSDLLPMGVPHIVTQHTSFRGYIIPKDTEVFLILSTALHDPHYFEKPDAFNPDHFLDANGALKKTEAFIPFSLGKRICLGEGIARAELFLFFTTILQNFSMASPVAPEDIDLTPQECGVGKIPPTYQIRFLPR
The experiment in a line: Activity of human recombinant CYP2B6 assessed as metabolite formation at 50 uM in presence of NADPH by LC-MS/MS method. The data set is classed as ADME. As to conditions: recombinant enzyme.

A further data set has as its target Cytochrome P450 2E1 (Homo sapiens, UniProt P05181). The experiment in a line: Activity of human recombinant CYP2E1 assessed as metabolite formation at 50 uM in presence of NADPH by LC-MS/MS method. The data set is classed as ADME. Conditions: recombinant enzyme.
In a further data set the target is Cytochrome P450 2D6 (Homo sapiens, UniProt P10635). The experiment in a line: Activity of human recombinant CYP2D6 assessed as metabolite formation at 50 uM in presence of NADPH by LC-MS/MS method. The data set is classed as ADME. As to conditions: recombinant enzyme.
Data set [3] can be described thus: Drug metabolism in NADPH supplemented rat liver S9 fraction assessed as 3-((4,5-dihydro-1H-imidazol-2-yl)methyl)-6-(1-hydroxy-2-methylpropan-2-yl)-2,4-dimethylphenol formation at 50 uM in presence of glutathione by LC-MS/MS method. The data set is classed as ADME, subcellular. Conditions: s9, 50 µM.
Data set [4] in a line: Drug metabolism in NADPH supplemented rat liver S9 fraction assessed as 3-((1H-imidazol-2-yl)methyl)-6-(1-hydroxy-2-methylpropan-2-yl)-2,4-dimethylphenol formation at 50 uM in presence of glutathione by LC-MS/MS method. The format is ADME, subcellular. As to conditions: s9, 50 µM.
Data set [5] is described as follows: Drug metabolism in NADPH supplemented rabbit liver S9 fraction assessed as 3-((4,5-dihydro-1H-imidazol-2-yl)methyl)-6-(1-hydroxy-2-methylpropan-2-yl)-2,4-dimethylphenol formation at 50 uM in presence of glutathione by LC-MS/MS method. The format is ADME, subcellular, Oryctolagus cuniculus. As to conditions: s9, 50 µM.
Data set [6] can be described thus: Drug metabolism in NADPH supplemented rabbit liver S9 fraction assessed as 3-((1H-imidazol-2-yl)methyl)-6-(1-hydroxy-2-methylpropan-2-yl)-2,4-dimethylphenol formation at 50 uM in presence of glutathione by LC-MS/MS method. The data set is classed as ADME, subcellular, Oryctolagus cuniculus. As to conditions: s9, 50 µM.
Data set [7] in a line: Drug metabolism in NADPH supplemented rabbit liver microsomes fraction assessed as 3-((4,5-dihydro-1H-imidazol-2-yl)methyl)-6-(1-hydroxy-2-methylpropan-2-yl)-2,4-dimethylphenol formation at 50 uM after 1 hr by LC-MS/MS method. The format is ADME, Oryctolagus cuniculus. A general note: Microsomes from liver hold many membrane-bound enzymes, among them those of drug oxidation.

In data set [8] the test system is Liver microsome. Description: Drug metabolism in NADPH supplemented rat liver microsomes fraction assessed as 3-((4,5-dihydro-1H-imidazol-2-yl)methyl)-6-(1-hydroxy-2-methylpropan-2-yl)-2,4-dimethylphenol formation at 50 uM after 1 hr by LC-MS/MS method. The format is ADME.
For data set [9], the system named is Liver microsome. Description: Drug metabolism in NADPH supplemented rat liver microsomes fraction assessed as 3-((1H-imidazol-2-yl)methyl)-6-(1-hydroxy-2-methylpropan-2-yl)-2,4-dimethylphenol formation at 50 uM after 1 hr by LC-MS/MS method. The data set is classed as ADME.
Data set [10] can be described thus: Drug metabolism in NADPH supplemented human liver S9 fraction assessed as 3-((1H-imidazol-2-yl)methyl)-6-(1-hydroxy-2-methylpropan-2-yl)-2,4-dimethylphenol formation at 50 uM in presence of glutathione by LC-MS/MS method. The format is ADME, subcellular. As to conditions: s9, 50 µM.
A short description of data set [11]: Drug level in NADPH supplemented rabbit liver S9 fraction treated with 50 uM oxymetazoline assessed as compound-N-acetyl cysteine conjugate formation in presence of N-acetyl cysteine by LC-MS/MS method. The format is ADME, subcellular, Oryctolagus cuniculus.
The target in data set [12] is T1, Cytochrome P450 2C19. Description: Activity of human recombinant CYP2C19 assessed as 3-((4,5-dihydro-1H-imidazol-2-yl)methyl)-6-(1-hydroxy-2-methylpropan-2-yl)-2,4-dimethylphenol formation at 50 uM in presence of NADPH by LC-MS/MS method. The data set is classed as ADME. Conditions: recombinant enzyme.
In data set [13] the target is T1, Cytochrome P450 2C19. The experiment in a line: Activity of human recombinant CYP2C19 assessed as 3-((1H-imidazol-2-yl)methyl)-6-tert-butyl-2,4-dimethylphenol formation at 50 uM in presence of NADPH by LC-MS/MS method. Conditions: recombinant enzyme. The data set is classed as ADME.

T1 sequence (P33261 whole entry): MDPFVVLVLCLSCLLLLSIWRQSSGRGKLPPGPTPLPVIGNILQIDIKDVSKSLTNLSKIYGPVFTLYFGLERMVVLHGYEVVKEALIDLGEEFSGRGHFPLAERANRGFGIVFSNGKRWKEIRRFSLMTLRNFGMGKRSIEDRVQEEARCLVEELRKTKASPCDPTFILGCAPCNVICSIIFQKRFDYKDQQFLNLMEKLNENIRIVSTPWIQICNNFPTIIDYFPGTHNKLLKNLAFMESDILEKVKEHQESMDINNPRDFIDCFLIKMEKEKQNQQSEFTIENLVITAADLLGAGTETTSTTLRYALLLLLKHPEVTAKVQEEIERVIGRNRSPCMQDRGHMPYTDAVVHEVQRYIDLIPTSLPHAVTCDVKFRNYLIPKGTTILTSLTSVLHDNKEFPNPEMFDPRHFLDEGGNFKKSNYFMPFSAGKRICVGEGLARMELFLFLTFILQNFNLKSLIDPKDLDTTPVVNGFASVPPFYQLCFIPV
Chain of Cytochrome P450 2D6 (P10635 whole entry): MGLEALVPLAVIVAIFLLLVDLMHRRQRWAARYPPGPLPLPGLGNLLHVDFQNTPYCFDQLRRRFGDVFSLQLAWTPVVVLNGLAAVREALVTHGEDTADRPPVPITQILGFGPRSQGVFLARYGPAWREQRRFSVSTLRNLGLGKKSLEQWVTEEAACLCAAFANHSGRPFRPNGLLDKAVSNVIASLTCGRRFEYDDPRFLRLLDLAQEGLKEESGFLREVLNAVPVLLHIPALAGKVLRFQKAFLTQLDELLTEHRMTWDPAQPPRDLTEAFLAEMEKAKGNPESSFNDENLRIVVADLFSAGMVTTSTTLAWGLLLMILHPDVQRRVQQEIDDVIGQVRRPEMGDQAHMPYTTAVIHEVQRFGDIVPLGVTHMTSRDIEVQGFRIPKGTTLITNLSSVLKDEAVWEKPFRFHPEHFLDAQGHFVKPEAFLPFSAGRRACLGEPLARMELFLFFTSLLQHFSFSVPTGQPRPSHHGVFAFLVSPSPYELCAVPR
Chain of Cytochrome P450 2E1 (P05181 whole entry): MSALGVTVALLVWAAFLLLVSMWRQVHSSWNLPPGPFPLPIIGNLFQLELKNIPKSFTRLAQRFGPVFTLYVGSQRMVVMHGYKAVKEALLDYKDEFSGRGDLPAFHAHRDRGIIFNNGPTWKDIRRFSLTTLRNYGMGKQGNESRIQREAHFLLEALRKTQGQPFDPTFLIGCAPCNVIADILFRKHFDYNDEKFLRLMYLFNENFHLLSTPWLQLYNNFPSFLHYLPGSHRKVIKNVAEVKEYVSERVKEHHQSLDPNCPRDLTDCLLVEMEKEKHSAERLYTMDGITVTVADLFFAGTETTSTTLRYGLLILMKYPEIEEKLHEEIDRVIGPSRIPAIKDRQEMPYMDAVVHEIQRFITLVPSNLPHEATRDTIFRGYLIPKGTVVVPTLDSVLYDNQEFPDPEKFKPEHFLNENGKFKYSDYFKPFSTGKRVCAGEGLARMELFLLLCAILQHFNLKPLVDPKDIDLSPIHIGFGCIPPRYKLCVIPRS

Consider `Cc1cc(C(C)(C)C)c(O)c(C)c1CC1=NCCN1` [OXYMETAZOLINE], for which the Drug metabolism entry on Cytochrome P450 2C19 [1] is listed as “metabolite_detected”; at Cytochrome P450 2C19 [2], “metabolite_detected”; at Cytochrome P450 2B6 it was “metabolite_not_detected”; on Cytochrome P450 2E1, “metabolite_not_detected”; on Cytochrome P450 2D6, “metabolite_not_detected”; in [3] it was “metabolite_detected”. Also, the Drug metabolism result (in data set [4]; in [5]; in [6]; in [7]; in the data set on Liver microsome [8]; in the data set with Liver microsome [9]) was “metabolite_detected” each time. In addition, the Drug metabolism result (in [10]; in data set [11]; on Cytochrome P450 2C19 [12]; on Cytochrome P450 2C19 [13]) was “metabolite_detected” throughout.
